Data taken from PMC2764797 (Neurochemistry international, 2009).

Molecular target: GAT1 (Homo sapiens, UniProt P30531)
Assay type: cell-based

Chain of GAT1 (P30531 whole entry): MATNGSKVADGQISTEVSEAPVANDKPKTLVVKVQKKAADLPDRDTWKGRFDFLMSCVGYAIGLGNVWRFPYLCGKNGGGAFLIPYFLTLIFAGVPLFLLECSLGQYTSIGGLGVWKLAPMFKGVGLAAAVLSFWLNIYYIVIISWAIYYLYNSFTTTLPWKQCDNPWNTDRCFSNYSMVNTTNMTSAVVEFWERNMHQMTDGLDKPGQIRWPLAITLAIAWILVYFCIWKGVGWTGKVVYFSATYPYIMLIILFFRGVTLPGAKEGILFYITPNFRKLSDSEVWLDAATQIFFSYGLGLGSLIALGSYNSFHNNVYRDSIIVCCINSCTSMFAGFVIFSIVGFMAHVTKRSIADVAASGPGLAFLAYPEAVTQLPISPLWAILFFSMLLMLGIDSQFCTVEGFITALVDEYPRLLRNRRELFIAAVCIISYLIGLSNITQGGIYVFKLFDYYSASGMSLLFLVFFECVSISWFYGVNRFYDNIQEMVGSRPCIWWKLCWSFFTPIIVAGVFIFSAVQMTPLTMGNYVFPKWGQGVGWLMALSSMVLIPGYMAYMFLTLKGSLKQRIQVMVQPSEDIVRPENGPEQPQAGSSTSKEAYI

O=C(O)C1=CCCN(CCON=C(c2ccccc2)c2ccccc2)C1 [NO-711, 1-[2-[[(diphenylmethylene)imino]oxy]ethyl]-1,2,5,6-tetrahydro-3-pyridinecarboxylic acid]
Ki: 78 ± 12 nM
